Test results reported in patent US9096593B2, “Compounds and methods for kinase modulation, and indications therefor” (Plexxikon Inc., priority 2009, dated 2015).
Read-outs that look alike come from different tables or passages of the source.

Key:
BCR-FMS/BaF3 cells = BCR-FMS/BaF3 cells (Homo sapiens, UniProt P07333); experiment: BCR-FMS/BaF3 cell proliferation assay (ATPlite); type: cell-based
How it was run: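 BCR-FMS/BaF3 cells at 2×10^5 cells/mL in growth media with 1 mg/mL G418, without WEHI/IL-3, treated with 8-point 1:3 compound titrations (top 10 μM final) for 3 days at 37 °C, 5% CO2. Cell number by ATPlite luminescence; IC50 from signal versus concentration.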

c-Kit kinase = c-Kit kinase (Homo sapiens (Human), UniProt P10721); experiment: c-Kit kinase biochemical activity assay (AlphaScreen, biotin-(E4Y)10 phosphorylation)
Sequence of c-Kit kinase (P10721 26-976): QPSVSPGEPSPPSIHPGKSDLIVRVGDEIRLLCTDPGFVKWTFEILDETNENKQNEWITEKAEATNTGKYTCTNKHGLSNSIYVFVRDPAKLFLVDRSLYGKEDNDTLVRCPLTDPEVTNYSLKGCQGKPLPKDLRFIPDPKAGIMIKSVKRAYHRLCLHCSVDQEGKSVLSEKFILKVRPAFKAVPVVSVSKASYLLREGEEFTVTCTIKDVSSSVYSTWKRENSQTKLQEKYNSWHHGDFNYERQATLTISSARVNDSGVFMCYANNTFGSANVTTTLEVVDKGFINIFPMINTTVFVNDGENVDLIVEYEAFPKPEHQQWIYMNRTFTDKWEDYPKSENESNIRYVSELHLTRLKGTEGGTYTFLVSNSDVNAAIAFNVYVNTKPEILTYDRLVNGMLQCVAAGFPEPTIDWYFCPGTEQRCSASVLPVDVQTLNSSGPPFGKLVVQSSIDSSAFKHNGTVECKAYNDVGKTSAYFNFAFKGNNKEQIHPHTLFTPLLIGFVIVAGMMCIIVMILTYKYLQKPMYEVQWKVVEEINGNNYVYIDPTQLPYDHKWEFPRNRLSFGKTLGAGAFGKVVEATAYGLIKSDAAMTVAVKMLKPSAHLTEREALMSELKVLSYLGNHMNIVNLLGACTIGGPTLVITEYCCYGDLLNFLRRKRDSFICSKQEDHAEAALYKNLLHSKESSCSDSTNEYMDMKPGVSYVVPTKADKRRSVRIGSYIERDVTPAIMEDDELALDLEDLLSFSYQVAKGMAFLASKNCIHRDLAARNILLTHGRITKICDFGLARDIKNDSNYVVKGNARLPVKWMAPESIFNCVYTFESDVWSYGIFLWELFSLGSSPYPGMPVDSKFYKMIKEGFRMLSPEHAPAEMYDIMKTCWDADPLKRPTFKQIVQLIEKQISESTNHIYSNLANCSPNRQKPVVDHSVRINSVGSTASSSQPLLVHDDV

Fms kinase = Fms kinase (Homo sapiens (Human), UniProt P07333); experiment: Fms kinase biochemical activity assay (AlphaScreen, biotin-(E4Y)10 phosphorylation)
Sequence of Fms kinase (P07333 20-972): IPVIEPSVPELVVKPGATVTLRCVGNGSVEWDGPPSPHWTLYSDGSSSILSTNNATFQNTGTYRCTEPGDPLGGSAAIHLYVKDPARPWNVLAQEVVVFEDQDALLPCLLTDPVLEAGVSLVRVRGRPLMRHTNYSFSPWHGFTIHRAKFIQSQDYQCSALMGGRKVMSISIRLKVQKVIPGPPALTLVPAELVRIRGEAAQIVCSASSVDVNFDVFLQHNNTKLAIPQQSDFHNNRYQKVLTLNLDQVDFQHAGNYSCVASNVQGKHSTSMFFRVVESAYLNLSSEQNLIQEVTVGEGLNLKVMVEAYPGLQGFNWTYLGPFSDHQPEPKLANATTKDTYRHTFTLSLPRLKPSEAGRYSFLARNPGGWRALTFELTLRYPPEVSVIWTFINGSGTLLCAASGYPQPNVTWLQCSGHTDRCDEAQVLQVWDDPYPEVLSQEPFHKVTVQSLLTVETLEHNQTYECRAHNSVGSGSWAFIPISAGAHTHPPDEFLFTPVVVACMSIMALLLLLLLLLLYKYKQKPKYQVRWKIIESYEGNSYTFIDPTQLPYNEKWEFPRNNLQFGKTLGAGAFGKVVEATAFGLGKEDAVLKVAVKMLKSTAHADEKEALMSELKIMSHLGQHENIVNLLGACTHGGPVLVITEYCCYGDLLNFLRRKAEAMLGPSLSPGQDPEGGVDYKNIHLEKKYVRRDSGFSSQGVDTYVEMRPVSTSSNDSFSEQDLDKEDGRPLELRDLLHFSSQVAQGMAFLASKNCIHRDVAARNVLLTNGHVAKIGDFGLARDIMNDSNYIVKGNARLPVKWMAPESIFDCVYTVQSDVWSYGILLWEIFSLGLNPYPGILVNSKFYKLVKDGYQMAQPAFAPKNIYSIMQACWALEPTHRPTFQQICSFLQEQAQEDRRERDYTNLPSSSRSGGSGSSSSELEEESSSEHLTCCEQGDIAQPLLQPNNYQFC
How it was run: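 Recombinant human Fms phosphorylating 30 nM biotin-(E4Y)10 with 100 μM ATP (1 ng/well enzyme) in Hepes pH 7.5 buffer with Mg2+/Mn2+, 5% DMSO, 20 min at 30 °C. Phosphotyrosine detected by AlphaScreen streptavidin donor/PY20 acceptor beads; IC50 from signal versus compound concentration.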

[1] = Kit IC50/Fms IC50, BCR-KIT/BaF3 vs BCR-FMS/BaF3 cells
[2] = read-out: BCR/BaF3 (IC50 μM) Fms; BCR-FMS/BaF3 cells
[3] = read-out: Biochemical activity (IC50 μM) Fms
[4] = BCR-FMS/BaF3 cells; read-out: BCR/BaF3 (IC50 μM) Fms

Sequence of BCR-FMS/BaF3 cells (P07333 20-972 limits assumed, change not shown): as the sequence (P07333 20-972) above

| SMILES | BCR/BaF3 selectivity (Kit IC50/Fms IC50) (BCR-FMS/BaF3 cells; [1]) | IC50 (BCR-FMS/BaF3 cells; [2]) | IC50 (c-Kit kinase) | Biochemical activity selectivity (Kit IC50/Fms IC50) (Fms kinase) | IC50 (Fms kinase; [3]) | IC50 (BCR-FMS/BaF3 cells; [4]) | IC50 (BCR-FMS/BaF3 cells; read-out: Cell based (IC50 μM) BCR/BaF3 (Fms); BCR-FMS/BaF3 cells, 3 days) | IC50 (Fms kinase; 100 μM ATP, read-out: Biochemical (IC50 μM) Fms) |
| --- | --- | --- | --- | --- | --- | --- | --- | --- |
| Cc1cnc2[nH]cc(Cc3cnc(NCc4cccc(C)n4)nc3)c2c1 [Compound P-2079, (6-Methyl-pyridin-2-ylmethyl)-[5-(5-methyl-1H-pyrrolo[2,3-b]pyridin-3-ylmethyl)-pyrimidin-2-yl]-amine] | <20 | < 0.1 µM | < 0.1 µM | <20 | < 0.1 µM | – | – | – |
| Cc1cnc2[nH]cc(Cc3cnc(NCc4cccc(N5CCOCC5)n4)nc3)c2c1 [Compound P-2081, [5-(5-Methyl-1H-pyrrolo[2,3-b]pyridin-3-ylmethyl)-pyrimidin-2-yl]-(6-morpholin-4-yl-pyridin-2-ylmethyl)-amine] | <20 | > 0.1 µM | < 0.1 µM | <20 | < 0.1 µM | – | – | – |
| Cc1cnc2[nH]cc(Cc3cnc(NCc4cccc(N5CCCC5)n4)nc3)c2c1 [Compound P-2082, [5-(5-Methyl-1H-pyrrolo[2,3-b]pyridin-3-ylmethyl)-pyrimidin-2-yl]-(6-pyrrolidin-1-yl-pyridin-2-ylmethyl)-amine] | <20 | < 0.1 µM | < 0.1 µM | <20 | < 0.1 µM | – | – | – |
| Cc1cnc2[nH]cc(Cc3ccc(NCc4ccc(Cl)nc4)nc3F)c2c1 [Compound P-2088, (6-Chloro-pyridin-3-ylmethyl)-[6-fluoro-5-(5-methyl-1H-pyrrolo[2,3-b]pyridin-3-ylmethyl)-pyridin-2-yl]-amine] | >20 | < 0.1 µM | > 0.1 µM | >20 | < 0.1 µM | – | – | – |
| COc1ccc(CNc2ccc(Cc3c[nH]c4ncc(C)cc34)c(F)n2)c(OC)n1 [Compound P-2097, (2,6-Dimethoxy-pyridin-3-ylmethyl)-[6-fluoro-5-(5-methyl-1H-pyrrolo[2,3-b]pyridin-3-ylmethyl)-pyridin-2-yl]-amine] | >20 | < 0.1 µM | > 0.1 µM | >20 | < 0.1 µM | – | – | – |
| Cc1cnc2[nH]cc(Cc3ccc(NCc4cccnc4F)nc3F)c2c1 [Compound P-2103, [6-Fluoro-5-(5-methyl-1H-pyrrolo[2,3-b]pyridin-3-ylmethyl)-pyridin-2-yl]-(2-fluoro-pyridin-3-ylmethyl)-amine] | <20 | < 0.1 µM | > 0.1 µM | >20 | < 0.1 µM | – | – | – |
| Cc1cnc2[nH]cc(Cc3ccc(NCc4ccnc(F)c4)nc3F)c2c1 [Compound P-2118, [6-Fluoro-5-(5-methyl-1H-pyrrolo[2,3-b]pyridin-3-ylmethyl)-pyridin-2-yl]-(2-fluoro-pyridin-4-ylmethyl)-amine] | >20 | < 0.1 µM | > 0.1 µM | >20 | < 0.1 µM | – | – | – |
| Cc1ccc(CNc2ccc(Cc3c[nH]c4ncc(C)cc34)c(F)n2)nc1 [Compound P-2131, [6-Fluoro-5-(5-methyl-1H-pyrrolo[2,3-b]pyridin-3-ylmethyl)-pyridin-2-yl]-(5-methyl-pyridin-2-ylmethyl)-amine] | <20 | – | > 0.1 µM | >20 | < 0.1 µM | < 0.1 µM | – | – |
| COc1ncccc1CNc1ncc(Cc2c[nH]c3ncc(C)cc23)cn1 [Compound P-2139, (2-Methoxy-pyridin-3-ylmethyl)-[5-(5-methyl-1H-pyrrolo[2,3-b]pyridin-3-ylmethyl)-pyrimidin-2-yl]-amine] | <20 | > 0.1 µM | > 0.1 µM | >20 | < 0.1 µM | – | – | – |
| Cc1cnc2[nH]cc(Cc3cnc(NCc4ccc(C(F)(F)F)nc4)c(F)c3)c2c1 [Compound P-2146, [3-Fluoro-5-(5-methyl-1H-pyrrolo[2,3-b]pyridin-3-ylmethyl)-pyridin-2-yl]-(6-trifluoromethyl-pyridin-3-ylmethyl)-amine] | <20 | < 0.1 µM | < 0.1 µM | <20 | < 0.1 µM | – | – | – |
| COc1cnc2[nH]cc(Cc3cnc(NCc4ccc(C(F)(F)F)nc4)c(F)c3)c2c1 [Compound P-2147, [3-Fluoro-5-(5-methoxy-1H-pyrrolo[2,3-b]pyridin-3-ylmethyl)-pyridin-2-yl]-(6-trifluoromethyl-pyridin-3-ylmethyl)-amine] | <20 | < 0.1 µM | < 0.1 µM | <20 | < 0.1 µM | – | – | – |
| Cc1cnc2[nH]cc(Cc3cnc(NCc4cccnc4OC4CCCC4)nc3)c2c1 [Compound P-2148, (2-Cyclopentyloxy-pyridin-3-ylmethyl)-[5-(5-methyl-1H-pyrrolo[2,3-b]pyridin-3-ylmethyl)-pyrimidin-2-yl]-amine] | <20 | – | > 0.1 µM | <20 | < 0.1 µM | < 0.1 µM | – | – |
| COc1ccc(CNc2ncc(Cc3c[nH]c4ncc(Cl)cc34)s2)cn1 [Compound P-2154, [5-(5-Chloro-1H-pyrrolo[2,3-b]pyridin-3-ylmethyl)-thiazol-2-yl]-(6-methoxy-pyridin-3-ylmethyl)-amine] | <20 | – | < 0.1 µM | <20 | < 0.1 µM | < 0.1 µM | – | – |
| Cn1cc(F)cc(CNc2ncc(Cc3c[nH]c4ncc(Cl)cc34)cn2)c1=O [Compound P-2157, 3-{[5-(5-Chloro-1H-pyrrolo[2,3-b]pyridin-3-ylmethyl)-pyrimidin-2-ylamino]-methyl}-5-fluoro-1-methyl-1H-pyridin-2-one] | >20 | < 0.1 µM | > 0.1 µM | <20 | > 0.1 µM | – | – | – |
| COc1cccc(CNc2ncc(Cc3c[nH]c4ncc(Cl)cc34)s2)n1 [Compound P-2163, [5-(5-Chloro-1H-pyrrolo[2,3-b]pyridin-3-ylmethyl)-thiazol-2-yl]-(6-methoxy-pyridin-2-ylmethyl)-amine] | <20 | – | > 0.1 µM | <20 | < 0.1 µM | < 0.1 µM | – | – |
| COc1ncc(CNc2ccc(Cc3c[nH]c4ncc(Cl)cc34)c(F)n2)cc1F [Compound P-2165, [5-(5-Chloro-1H-pyrrolo[2,3-b]pyridin-3-ylmethyl)-6-fluoro-pyridin-2-yl]-(5-fluoro-6-methoxy-pyridin-3-ylmethyl)-amine] | >20 | < 0.1 µM | > 0.1 µM | >20 | < 0.1 µM | – | < 0.1 µM | < 0.1 µM |
| Fc1cc(Cc2c[nH]c3ncc(Cl)cc23)cnc1NCc1ccc(C(F)(F)F)nc1 [Compound P-2172, [5-(5-Chloro-1H-pyrrolo[2,3-b]pyridin-3-ylmethyl)-3-fluoro-pyridin-2-yl]-(6-trifluoromethyl-pyridin-3-ylmethyl)-amine] | <20 | – | < 0.1 µM | <20 | < 0.1 µM | < 0.1 µM | – | – |
